Test results reported in the NIST ThermoML archive (doi:10.1016/j.jct.2009.01.010).

Legend:
[1] = refractive index (Na D-line) (dimensionless); xn = mol fraction of the nth substance listed; conditions: 298.15 K, 101 kPa, Liquid, Abbe refractometer
[2] = xn = mol fraction of the nth substance listed; conditions: 298.15 K, 101 kPa, Liquid; for speed of sound: Linear variable-path acoustic interferometer; for mass density: Pycnometric method
[3] = refractive index (Na D-line) (dimensionless); conditions: 298.15 K; 101.33 kPa; Liquid; Abbe refractometer
[4] = 298.15 K, 101 kPa, Liquid; for speed of sound: Linear variable-path acoustic interferometer; for mass density: Pycnometric method

COCCO [2-methoxyethan-1-ol] + O
Conditions | mass density, [2] [kg/m3] | refractive index, [1] | speed of sound, [2] [m/s]
x1 = 0.0202 | 999.08 | 1.34 | 1546.5
x1 = 0.04 | 1001.08 | 1.346 | 1581
x1 = 0.0539 | 1002.4 | 1.35 | 1600.9
x1 = 0.0822 | 1004.71 | 1.357 | 1636.5
x1 = 0.101 | 1005.84 | 1.361 | 1643.7
x1 = 0.1509 | 1007.02 | 1.37 | 1654.7
x1 = 0.2036 | 1005.67 | 1.378 | 1641.7
x1 = 0.3025 | 999.82 | 1.386 | 1587.3
x1 = 0.4033 | 992.74 | 1.391 | 1532.3
x1 = 0.5009 | 985.91 | 1.394 | 1488.5
x1 = 0.5514 | 982.57 | 1.395 | 1470.9
x1 = 0.6976 | 974 | 1.396 | 1418.8
x1 = 0.7855 | 969.57 | 1.398 | 1392
x1 = 0.889 | 964.87 | 1.398 | 1369.3
x1 = 1 | 960.23 | 1.4002 | 1341.7

CCOCCO [2-ethoxyethan-1-ol]
Conditions | mass density [kg/m3] | refractive index | speed of sound [m/s]
[3] | – | 1.4058 | –
[4] | 925.39 | – | 1302.5

CCOCCOCCO [3,6-dioxa-1-octanol] + O
Conditions | mass density, [2] [kg/m3] | refractive index, [1] | speed of sound, [2] [m/s]
x1 = 0.013 | 1001.37 | 1.3424 | 1562
x1 = 0.025 | 1005.93 | 1.3515 | 1602
x1 = 0.05 | 1013.24 | 1.3654 | 1656
x1 = 0.06 | 1015.27 | 1.3695 | 1670.5
x1 = 0.076 | 1017.84 | 1.376 | 1670
x1 = 0.101 | 1020.05 | 1.3837 | 1658
x1 = 0.152 | 1019.56 | 1.396 | 1621
x1 = 0.202 | 1017.51 | 1.4028 | 1601.9
x1 = 0.302 | 1011.81 | 1.4108 | 1549.5
x1 = 0.402 | 1005.59 | 1.414 | 1500
x1 = 0.519 | 999.21 | 1.4198 | 1460
x1 = 0.59 | 996.2 | 1.4203 | 1442
x1 = 0.775 | 990.78 | 1.4228 | 1412
x1 = 0.852 | 988.76 | 1.4235 | 1398
x1 = 1 | 984.6 | 1.425 | 1378

O [water] + CCOCCO
x2 = 0
Conditions | mass density [kg/m3] | refractive index
[1] | – | 1.3325
[2] | 999.704 | –

O [water] + CCOCCOCCO
x2 = 0
Conditions | mass density [kg/m3] | refractive index
[1] | – | 1.3325
[2] | 999.704 | –

COCCO [2-methoxyethan-1-ol]
Conditions | mass density [kg/m3] | refractive index | speed of sound [m/s]
[3] | – | 1.4002 | –
[4] | 960.23 | – | 1341.7

COCCOCCO [2-(2-methoxyethoxy)ethanol]
Conditions | mass density [kg/m3] | refractive index | speed of sound [m/s]
[3] | – | 1.425 | –
[4] | 1016.95 | – | 1422.6
